pKi: −log10 of the molar value. Where two headings read alike, the source gives them in different places.
Tests used:
[1] = biological target: T1, HCV genotype 1b (BK) NS3 modified enzyme with a R155K mutation (Hepatitis C virus genotype 1b, UniProt P26663, R1181K); assay: HCV NS3 protease time-resolved fluorescence (TRF) assay, genotype 1b R155K; assay type: biochemical; settings: Ki 1b R155K
T1 construct: HCV genotype 1b (BK) NS3 modified enzyme
Method: (§1) The HCV NS3 protease inhibitory activity of the present compounds may be tested using assays known in the art. One such assay is HCV NS3 protease time-resolved fluorescence (TRF) assay as described below and in International Patent Application Publication No. WO2006/102087. Other examples of such assays are described in e.g., International Patent Application Publication No. WO2005/046712. The assay is performed in a final volume of 100 μl in assay buffer containing 50 mM HEPES, pH 7.5, 150 mM NaCl, 15% glycerol, 0.15% Triton X-100, 10 mM DTT, and 0.1% PEG 8000. NS3 protease is pre-incubated with various concentrations of inhibitors in DMSO for 30 minutes. The reaction is initiated by adding the TRF peptide substrate (final concentration 100 nM). NS3 mediated hydrolysis of the substrate is quenched after 1 hour at room temperature with 100 μl of 500 mM MES, pH 5.5. Product fluorescence is detected using either a VICTOR V2 or FUSION fluorophotometer (Perkin Elmer Life and Analytical Sciences) with excitation at 340 nm and emission at 615 nm with a 400 μs delay. Testing concentrations of different enzyme forms are selected to result in a signal to background ratio (S/B) of 10-30. IC50 values are derived using a standard four-parameter fit to the data. K; values are derived from IC50 values using the following formula, IC50=Ki(1+[S]/Km), Eqn (1), where [S] is the concentration of substrate peptide in the reaction and KM is the Michaelis constant. See Gallinari et al., 1999, Biochem. 38:5620-32; Gallinari et al., 1998, J. Virol. 72:6758-69; Taliani et al., 1996, Anal. Biochem. 240:60-67.
(§2) The HCV NS3 protease inhibitory activity was measured using the protease time-resolved fluorescence (TRF) assay as described below and in International Patent Application Publication No. WO 2006/102087. The assay was performed with HCV genotype 1b (BK) NS3 modified enzyme with a R155K mutation and genotype 3a (3A-1).
(§3) The assay was performed in a final volume of 50 μl in assay buffer containing 50 mM HEPES, pH 7.5, 150 mM NaCl, 15% glycerol, 0.15% TRITON X-100, 10 mM DTT, and 0.1% PEG 8000. NS3 and NS4A protease is pre-incubated with various concentrations of inhibitors in DMSO for 10 minutes. The reaction was initiated by adding the TRF peptide substrate (final concentration 25 nM) and NS3 mediated hydrolysis of the substrate proceeds for 6 hours at room temperature. Product fluorescence is detected using an Envision plate reader (Perkin Elmer) with excitation at 340 nm and emission at 615 nm with a 400 μs delay. Testing concentrations of the enzymes were selected to result in a signal to background ratio (S/B) of 5-20. IC50 values are derived using a standard four-parameter fit to the data.
(§4) NS3 and NS4A protease is pre-incubated with various concentrations of inhibitors in DMSO for 30 minutes. The reaction is initiated by adding the TRF peptide substrate (final concentration 100 nM). NS3 mediated hydrolysis of the substrate is quenched after 1 hour at room temperature with 100 μl of 500 mM MES, pH 5.5. Product fluorescence is detected using either a VICTOR V2 or FUSION fluorophotometer (Perkin Elmer Life and Analytical Sciences) with excitation at 340 nm and emission at 615 nm with a 400 μs delay. Testing concentrations of the enzymes are selected to result in a signal to background ratio (S/B) of 8-30. IC50 values are derived using a standard four-parameter fit to the data. Ki values are derived from IC50 values using the following formula, IC50=Ki(1+[S][…]), Eqn (1), where [S] is the concentration of substrate peptide in the reaction and KM is the Michaelis constant. See Gallinari et al., 1999, Biochem. 38:5620-32; Gallinari et al., 1998, J. Virol. 72:6758-69; and Taliani et al., 1996, Anal. Biochem. 240:60-67. ND means not determined.

[2] = biological target: HCV NS3 protease genotype 3a (3A-1) (Hepatitis C virus genotype 3a, UniProt Q81258); assay: HCV NS3 protease time-resolved fluorescence (TRF) assay, genotype 3a; assay type: biochemical
Method: as §1, §2, §3, §4

[3] = genotype 1b (BK) NS3 R155K, single value

Row | Compound | pKi [1, 3] | pKi ([2]; Ki 3a) | pKi ([2]; read-out: Ki 3a) | pKi ([1]; first of two values printed in the cell (not explained)) | pKi ([1]; second of two values printed in the cell (not explained))
1 | C=C[C@@H]1C[C@]1(NC(=O)[C@@H]1C[C@@H]2CN1C(=O)[C@H](C(C)(C)C)NC(=O)O[C@@H]1CCC[C@H]1CCCCCc1c(nc3ccccc3c1OCCN1CCOCC1)O2)C(=O)NS(=O)(=O)N1CCCCC1 [Example 110, (3aR,7S,10S,12R,24aR)-7-tert-butyl-N-{(1R,2S)-2-ethenyl-1-[(piperidin-1-ylsulfonyl)carbamoyl]cyclopropyl}-19-[2-(morpholin-4-yl)ethoxy]-5,8-dioxo-1,2,3,3a,5,6,7,8, 11,12,20,21,22,23,24,24a-hexadecahydro-10H-9,12-methanocyclopenta[18,19] [1,10,3,6]dioxadiaza-cyclononadecino[11,12-b] quinoline-10-carboxamide] | 7.85 | 6.31 |  |  | 
2 | C=C[C@@H]1C[C@]1(NC(=O)[C@@H]1C[C@@H]2CN1C(=O)[C@H](C1CCCC1)NC(=O)O[C@@H]1CCC[C@H]1CC/C=C/Cc1c(nc3ccccc3c1OCCC(C)(C)O)O2)C(=O)NS(=O)(=O)C1(C)CC1 [Example 49, (3aR,7S,10S,12R,21E,24aS)-7-cyclopentyl-N-[(1R,2S)-2-ethenyl-1-{[(1-methylcyclopropyl)sulfonyl]carbamoyl}cyclopropyl]-19-(3-hydroxy-3-methylbutoxy)-5,8-dioxo-1,2,3,3a,5,6,7,8,11,12,20,23,24,24a-tetradecahydro-10H-9,12-methanocyclo penta[18,19][1,10,3,6]dioxadiazacyclo nonadecino[11,12-b]quinoline-10-carboxamide] | 9.80 | 8.82 |  |  | 
3 | C=C[C@@H]1C[C@]1(NC(=O)[C@@H]1C[C@@H]2CN1C(=O)[C@H](C1CCCC1)NC(=O)O[C@]1(C)CCC[C@H]1CC/C=C/Cc1c(nc3ccccc3c1OCc1ccccc1)O2)C(=O)NS(=O)(=O)C1CC1 [Example 14, (3aR,7S,10S,12R,21E,24aS)-19-(benzyloxy)-7-cyclopentyl-N-{(1R,2S)-1-[(cyclopropylsulfonyl)carbamoyl]-2-ethenylcyclopropyl}-3a-methyl-5,8-dioxo-1,2,3,3a,5,6,7,8,11,12,20,23,24,24a-tetradecahydro-10H-9,12-methanocyclopenta[18,19] [1,10,3,6]dioxadiazacyclononadecino[11,12-b] quinoline-10-carboxamide] | 9.09 |  | 7.55 |  | 
4 | C=C[C@@H]1C[C@]1(NC(=O)[C@@H]1C[C@@H]2CN1C(=O)[C@H](C(C)(C)C)NC(=O)O[C@@H]1C[C@H]1CCCCCc1c(nc3ccccc3c1OC1CCN(C3CC3)CC1)O2)C(=O)NS(=O)(=O)C1(C)CC1 [Example 220, (1aR,5S,8S,10R,22aR)-5-tert-butyl-17-[(1-cyclopropylpiperidin-4-yl)oxy]-N-[(1R,2S)-2-ethenyl-1-{[(1-methylcyclopropyl)sulfonyl]carbamoyl}cyclopropyl]-3,6-dioxo-1,1a,3,4,5,6,9,10,18,19,20,21,22,22a-tetradecahydro-8H-7,10-methanocyclopropa[18,19][1,10,3,6] dioxadiazacyclononadecino[11,12-b]quinoline-8-carboxamide] | 9.54 | 8.41 |  |  | 
5 | C=C[C@@H]1C[C@]1(NC(=O)[C@@H]1C[C@@H]2CN1C(=O)[C@H](C1CCCC1)NC(=O)O[C@@]1(C)CCC[C@@H]1CCCCCc1c(nc3ccccc3c1O)O2)C(=O)NS(=O)(=O)C1CC1 [Example 30, (3aS,7S,10S,12R,24aS)-7-cyclopentyl-N-{(1R,2S)-1-[(cyclopropylsulfonyl)carbamoyl]-2-ethenylcyclopropyl}-19-hydroxy-3a-methyl-5,8-dioxo-1,2,3,3a,5,6,7,8,11,12,20,21,22,23,24,24a-hexa-decahydro-10H-9,12-methanocyclopenta[18,19] [1,10,3,6]dioxadiazacyclononadecino[11,12-b] quinoline-10-carboxamide] | 8.89 | 8.31 |  |  | 
6 | C=C[C@@H]1C[C@]1(NC(=O)[C@@H]1C[C@@H]2CN1C(=O)[C@H](C1CCCCC1)NC(=O)O[C@@H]1C[C@H]1CCCCCc1c(nc3ccccc3c1OC1CCN(C(=O)OC(C)(C)C)CC1)O2)C(=O)NS(=O)(=O)C1(C)CC1 [Example 235, tert-butyl 4-{[(1aR,5S,8S,10R,22aR)-5-cyclohexyl-8-{[(1R,2S)-2-ethenyl-1-{[(1-methylcyclopropyl)sulfonyl]carbamoyl}cyclopropyl]carbamoyl}-3,6-dioxo-1,1a,3,4,5,6,9,10,18,19,20,21,22,22a-tetradecahydro-8H-7,10-methanocyclopropa[18,19][1,10,3,6]dioxadiazacyclononadecino[11,12-b]quinolin-17-yl]oxy}piperidine-1-carboxylate] |  | 6.69 |  | 9.28 | 8.36
7 | C=C[C@@H]1C[C@]1(NC(=O)[C@@H]1C[C@@H]2CN1C(=O)[C@H](C(C)(C)C)NC(=O)O[C@@H]1C[C@H]1CCCCCc1c(nc3ccccc3c1OCCCN1CCN(C)CC1)O2)C(=O)NS(=O)(=O)C1(C)CC1 [Example 131, (1aR,5S,8S,10R,22aR)-5-tert-butyl-N-[(1R,2S)-2-ethenyl-1-{[(1-methylcyclopropyl)sulfonyl]carbamoyl}cyclopropyl]-17-[3-(4-methylpiperazin-1-yl)propoxy]-3,6-dioxo-1,1a,3,4,5,6,9,10,18,19,20,21,22,22a-tetradecahydro-8H-7,10-methanocyclopropa[8,19][1,10,3,6]dioxadiazacyclononadecino[11,12-b]quinoline-8-carboxamide] | 9.96 | 8.89 |  |  | 
8 | C=C[C@@H]1C[C@]1(NC(=O)[C@@H]1C[C@@H]2CN1C(=O)[C@H](C1CCCC1)NC(=O)O[C@@H]1CCC[C@H]1CC/C=C/Cc1c(nc3ccccc3c1OCC(=O)N1CCCC1)O2)C(=O)NS(=O)(=O)C1CC1 [Example 67, (3aR,7S,10S,12R,21E,24aS)-7-cyclopentyl-N-{(1R,2S)-1-[(cyclopropylsulfonyl)carbamoyl]-2-ethenylcyclopropyl}-5,8-dioxo-19-[2-oxo-2-(pyrrolidin-1-yl)ethoxy]-1,2,3,3a,5,6,7,8,11,12,20,23,24,24a-tetradecahydro-10H-9,12-methanocyclopenta[18,19][1,10,3,6]dioxadiazacyclononadecino[11,12-b]quinoline-10-carboxamide] | 10.09 | 8.18 |  |  | 
9 | C=C[C@@H]1C[C@]1(NC(=O)[C@@H]1C[C@@H]2CN1C(=O)[C@H](C(C)(C)C)NC(=O)O[C@@H]1C[C@H]1CCCCCc1c(nc3ccccc3c1OCCCN1CCCCC1c1nc3cc(F)ccc3[nH]1)O2)C(=O)NS(=O)(=O)C1(C)CC1 (stereo partly drawn) [Example 203, (1aR,5S,8S,10R,22aR)-5-tert-butyl-N-[(1R,2S)-2-ethenyl-1-{[(1-methylcyclopropyl)sulfonyl]carbamoyl}cyclopropyl]-17-{3-[2-(5-fluoro-1H-benzimidazol-2-yl)piperidin-1-yl]propoxy}-3,6-dioxo-1,1a,3,4,5,6,9,10,18,19,20, 21,22,22a-tetradecahydro-8H-7,10-methanocyclopropa[18,19][1,10,3,6] dioxadiazacyclononadecino[11,12-b] quinoline-8-carboxamide] | 9.89 | 8.31 |  |  | 

Reference: patent US9328138B2 (priority 2011, dated 2016)
